Test results taken from patent US8927547B2, “Pyrimidine derivatives” (Noviga Research AB, priority 2010, dated 2015).

Experiments:
Format in all cases: cell-based
A2780 = assay: FMCA, A2780 ovarian cancer; settings: Homo sapiens, read-out: EC50 (μM) in various cancer cell lines: A2780
Source text: (§1) The Fluorometric Microculture Cytotoxicity Assay, FMCA, is a three day non-clonogenic microplate-based cell viability assay used for measurement of the cytotoxic and/or cytostatic effect of compounds in vitro (Lindhagen, E., et al. Nat Protoc, 2008. 3(8): p. 1364-9). FMCA (Larsson, R. and P. Nygren, Anticancer Res, 1989. 9(4): p. 1111-9) represents a valuable method to measure cytotoxicity in a number of cell types, both cell lines and primary cells from patients (Larsson, R., et al., Int J Cancer, 1992. 50(2): p. 177-85; Fridborg, H., et al., Eur J Cancer, 1999. 35(3): p. 424-32; Dhar, S., et al., Br J Cancer, 1996. 74(6): p. 888-96).
(§2) FMCA is based on the principle that fluorescein diacetate (FDA) is converted to the fluorescent probe fluorescein by esterases in the plasma membranes of living cells. For experiments, 96 or 384-well microplates are prepared with compounds and stored at −70° C. until use. Cells are then seeded into the drug-prepared plates and placed in an incubator for 72 h. On the last day of incubation, the plates are washed and a buffer containing FDA is added and incubated with the cells for 45 minutes. Finally the fluorescence per well is measured in a fluorometer and a Survival Index % (SI) for each compound-treated well is calculated with the equation: Compound-treated cells minus blank divided by control cells minus blank. A high SI-value indicates a large percentage of living cells and vice versa.
(§3) Compounds of the invention as well as kinase inhibitors sorafenib, sunitinib, dasatinib, and pazopanib (reference compounds) were diluted with PBS to a concentration which was ten-times higher than the desired starting concentration. Then, a Biomek 2000 liquid handling system was employed to serially dilute the compounds in a deep-well 384-well plate. From this plate, assay plates containing 5 μl compound per well were prepared with the Biomek 2000. Certain compounds precipitated when diluted with PBS, and these compounds were therefore prepared in a 96-well plate manually as described above using culture medium RPMI 1640 instead of PBS.
(§4) The compounds were also tested at five concentrations, with five times serial dilution on the following cell types: CCRF-CEM, hTERT-RPE1 (normal retinal epithelial cells), hRPTEpiC (normal renal cells) and PBMC (peripheral blood mononuclear cells). Each experiment was performed three times, except for PBMC and hRPTEpiC, which were performed twice. SI-values were calculated, graphs were plotted using GraphPadPrism 5.0 (GraphPad Software Inc. La Jolla, Calif.) and EC50-values for each cell type and compound were determined from the curves.
(§5) The compounds of the invention were also tested on further cancer cell lines related to colon cancer (HCT116; see e.g Brattain M G, et al. Cancer Res. 1981, 41, 1751-1756), breast cancer (MCF7; see e.g. Soule H D, et al. J. Natl. Cancer Inst. 1973, 51, 1409-1416), teniposide-resistant leukaemia (CEM/VM1; see e.g. Danks M K et al. Cancer Res. 1987, 47, 1297-1301), lung cancer (H69; see e.g. Gazdar A F, et al. Cancer Res. 1980, 40, 3502-3507), doxorubicin-resistant lung cancer (H69AR; see e.g. Mirski S E, et al. Cancer Res. 1987, 47, 2594-2598), myeloma (RPMI 8226; see e.g. Matsuoka Y, et al. Proc. Soc. Exp. Biol. Med. 1967, 125, 1246-1250), doxorubicin-resistant myeloma (8226/Dox40; see e.g. Dalton W S et al. Blood 1989, 15,747-752), lymphoma (U-937, see e.g. Sundstrom C, et al. Int. J. Cancer 1976, 17, 565-577), vincristin-resistant lymphoma (U-937-vcr; see e.g. Botling J, et al. Int J Cancer 1994, 15; 58 (2), 269-274), ovarian cancer (A2780; see e.g. Hamilton T C, et al. Semin Oncol. 1984, 11, 285-298), doxorubicin-resistant ovarian cancer (A2780/Adr), cisplatin-resistant ovarian cancer (A2780/Cis; see e.g. Behrens B C, et al. Cancer Res. 1987, 47, 414-418), renal cancer (ACHN; see e.g. Borden E C, et al. Cancer Res. 1982, 42(12), 4948-4953), pancreatic cancer (PANC-1, BxPC-3, and MIA PaCa-2; see e.g. Lieber M, et al. Int. […]

MCF7 = assay: FMCA, MCF7 breast cancer; settings: Homo sapiens, read-out: EC50 (μM) in various cancer cell lines: MCF7
Source text: as §1, §2, §3, §4, §5

CEM/VM1 = assay: FMCA, CEM/VM1 teniposide-resistant leukaemia; settings: Homo sapiens, read-out: EC50 (μM) in various cancer cell lines: CEM/VM1
Source text: as §1, §2, §3, §4, §5

8226/Dox40 = assay: FMCA, 8226/Dox40 doxorubicin-resistant myeloma; settings: read-out: EC50 (μM) in various cancer cell lines: 8226/Dox40
Source text: as §1, §2, §3, §4, §5

H69AR = assay: FMCA, H69AR doxorubicin-resistant lung cancer; settings: Homo sapiens, read-out: EC50 (μM) in various cancer cell lines: H69 AR
Source text: as §1, §2, §3, §4, §5

HCT116 = assay: FMCA, HCT116 colon cancer; settings: Homo sapiens, HCT-116, read-out: EC50 (μM) in various cancer cell lines: HCT116
Source text: as §1, §2, §3, §4, §5

ACHN = assay: FMCA, ACHN renal cancer; settings: Homo sapiens, read-out: EC50 (μM) in various cancer cell lines: ACHN
Source text: as §1, §2, §3, §4, §5

U-937 = assay: FMCA, U-937 lymphoma; settings: Homo sapiens, read-out: EC50 (μM) in various cancer cell lines: U-937
Source text: as §1, §2, §3, §4, §5

U-937-vcr = assay: FMCA, U-937-vcr vincristin-resistant lymphoma; settings: read-out: EC50 (μM) in various cancer cell lines: U-937-ver
Source text: as §1, §2, §3, §4, §5

RPMI 8226 = assay: FMCA, RPMI 8226 myeloma; settings: Homo sapiens, read-out: EC50 (μM) in various cancer cell lines: RPMI 8226
Source text: as §1, §2, §3, §4, §5

H69 = assay: FMCA, H69 lung cancer; settings: Homo sapiens, NCI-H69, read-out: EC50 (μM) in various cancer cell lines: H69
Source text: as §1, §2, §3, §4, §5

[1] = system: CCRF-CEM cancer cells - leukaemia; assay: Fluorometric Microculture Cytotoxicity Assay (FMCA), CCRF-CEM; settings: Homo sapiens, 72 h incubation
Source text: as §1, §2
In subsequent experiments, compounds were tested, along with kinase inhibitors (dasatinib, pazopanib, sorafenib, and sunitinib) as described above. Initially, the acute lymphoblastic leukaemia cell line CCRF-CEM (see e.g. Foley G E, et al. Cancer 1965, 18, 522-529) was used throughout. In the assay plates, medium was added to six empty wells (blank wells) and wells were filled with PBS and cell suspension and served as control wells. SI-values were then calculated for each compound-treated well as described above. All experiments were conducted twice and a new batch of plates was prepared for each experiment.
For dose-response experiments, 384-well plates were prepared as follows:
as §3, §4

A2780/Cis = assay: FMCA, A2780/Cis cisplatin-resistant ovarian cancer; settings: A2780cis, read-out: EC50 (μM) in various cancer cell lines: A2780/Cis
Source text: as §1, §2, §3, §4
(§6) The compounds of the invention were also tested on further cancer cell lines related to colon cancer (HCT116; see e.g Brattain M G, et al. Cancer Res. 1981, 41, 1751-1756), breast cancer (MCF7; see e.g. Soule H D, et al. J. Natl. Cancer Inst. 1973, 51, 1409-1416), teniposide-resistant leukaemia (CEM/VM1; see e.g. Danks M K et al. Cancer Res. 1987, 47, 1297-1301), lung cancer (H69; see e.g. Gazdar A F, et al. Cancer Res. 1980, 40, 3502-3507), doxorubicin-resistant lung cancer (H69AR; see e.g. Mirski S E, et al. Cancer Res. 1987, 47, 2594-2598), myeloma (RPMI 8226; see e.g. Matsuoka Y, et al. Proc. Soc. Exp. Biol. Med. 1967, 125, 1246-1250), doxorubicin-resistant myeloma (8226/Dox40; see e.g. Dalton W S et al. Blood 1989, 15,747-752), lymphoma (U-937, see e.g. Sundstrom C, et al. Int. […]

A2780/Adr = assay: FMCA, A2780/Adr doxorubicin-resistant ovarian cancer; settings: read-out: EC50 (μM) in various cancer cell lines: A2780/Adr
Source text: as §1, §2, §3, §4, §6

EC50 (A2780)	EC50 (MCF7)	EC50 (CEM/VM1)	EC50 (8226/Dox40)	EC50 (H69AR)	EC50 (HCT116)	EC50 (ACHN)	EC50 (U-937)	EC50 (U-937-vcr)	EC50 (RPMI 8226)	EC50 (H69)	EC50 (A2780/Cis)	EC50 (A2780/Adr)	SMILES	EC50 [1]
0.33 µM	2.06 µM	0.19 µM	2.58 µM	0.35 µM	1.16 µM	1.62 µM	0.21 µM	0.27 µM	0.45 µM	5.47 µM			COc1ccc2[nH]cc(CCNc3nc(C)cc(NCc4ccc5[nH]ccc5c4)n3)c2c1 [Example 84, N^4-(1H-indol-5-ylmethyl)-N^2-[2-(5-methoxy-1H-indol-3-yl)ethyl]-6-methylpyrimidine-2,4-diamine]	40 nM
0.29 µM	2.33 µM	0.05 µM	1.19 µM	0.29 µM	1.33 µM	1.6 µM	0.08 µM	0.32 µM	0.23 µM	4.18 µM			COc1ccc2[nH]cc(CCNc3nccc(NCc4ccc5[nH]c(C)cc5c4)n3)c2c1 [Example 64, N^2-[2-(5-methoxy-1H-indol-3-yl)ethyl]-N^4-(2-methyl-1H-indol-5-ylmethyl)pyrimidine-2,4-diamine]	50 nM
0.34 µM	3.08 µM	0.22 µM	1.1 µM	0.34 µM	3.09 µM	1.59 µM	0.19 µM	0.4 µM	0.7 µM	12.7 µM			c1cc(Nc2nccc(NCc3ccc4[nH]ccc4c3)n2)c2cn[nH]c2c1 [Example 76, N^4-(1H-indol-5-ylmethyl)-N^2-(1H-indazol-4-yl)pyrimidine-2,4-diamine]	230 nM
1.37 µM	12.4 µM	0.33 µM	24.4 µM	0.71 µM	2.47 µM	5.43 µM	0.22 µM	1.74 µM	5.01 µM	37.2 µM			Cc1cc2cc(Nc3ccnc(NCc4ccc5[nH]cnc5c4)n3)ccc2[nH]1 [Example 67, N^2-(1H-benzo[d]imidazol-5-ylmethyl)-N^4-(2-methyl-1H-indol-5-yl)pyrimidine-2,4-diamine]	210 nM
0.28 µM	4.43 µM	0.21 µM	0.41 µM	0.46 µM	0.51 µM	1.26 µM	0.19 µM	0.19 µM	0.23 µM	9.35 µM	0.22 µM	0.6 µM	Cc1cc2cc(Nc3ccnc(NCc4ccc5[nH]ccc5c4)n3)ccc2[nH]1 [Example 24, N^2-(1H-indol-5-ylmethyl)-N^4-(2-methyl-1H-indol-5-yl)pyrimidine-2,4-diamine]	380 nM
0.7 µM	9 µM	0.12 µM	0.37 µM		6.7 µM	2.54 µM	0.07 µM	0.07 µM	0.5 µM	10.8 µM	0.35 µM	2.4 µM	c1cc(Nc2nccc(NCc3ccc4[nH]ccc4c3)n2)c2cc[nH]c2c1 [Example 1, N^4-(1H-indol-5-ylmethyl)-N^2-(1H-indol-4-yl)pyrimidine-2,4-diamine]	330 nM
													Cn1ccc2c(Nc3nccc(NCc4ccc5[nH]ccc5c4)n3)cccc21 [Example 75, N^4-(1H-indol-5-ylmethyl)-N^2-(1-methyl-1H-indol-4-yl)pyrimidine-2,4-diamine]	610 nM
													Cc1cc(NCc2ccc3[nH]ccc3c2)nc(NCCc2c[nH]c3ccc(O)cc23)n1 [Example 32, 3-{2-[4-(1H-indol-5-ylmethylamino)-6-methyl-pyrimidin-2-ylamino]-ethyl}-1H-indol-5-ol]	7810 nM
													Cc1cc2cc(Nc3nc(NCc4ccc5[nH]ccc5c4)cc(C(F)(F)F)n3)ccc2[nH]1 [Example 33, N^4-(1H-indol-5-ylmethyl)-N^2-(2-methyl-1H-indol-5-yl)-6-trifluoromethylpyrimidine-2,4-diamine]	9550 nM
													c1cc(NCc2ccc3[nH]ccc3c2)nc(Nc2ccc3[nH]ncc3c2)n1 [Example 4, N^4-(1H-indol-5-ylmethyl)-N^2-(1H-indazol-5-yl)pyrimidine-2,4-diamine]	4070 nM
													Cc1ccc2[nH]cc(CCNc3ccnc(NCc4ccc5[nH]ccc5c4)n3)c2c1 [Example 27, N^2-(1H-indol-5-ylmethyl)-N^4-[2-(5-methyl-1H-indol-3-yl)ethyl]pyrimidine-2,4-diamine]	4170 nM
													c1ccc(COc2ccc3[nH]cc(CCNc4nccc(NCc5ccc6[nH]ccc6c5)n4)c3c2)cc1 [Example 72, N^4-(1H-indol-5-ylmethyl)-N^2-{2-[5-(benzyloxy)-1H-indol-3-yl]ethyl}pyrimidine-2,4-diamine]	< 10000 nM
0.78 µM	3.35 µM	0.27 µM	10 µM	0.64 µM	2.45 µM	3.32 µM	0.35 µM	0.99 µM	1.83 µM	11.6 µM			COc1ccc2[nH]cc(CCNc3nccc(NCc4ccc5[nH]ncc5c4)n3)c2c1 [Example 66, N^4-(1H-indazol-5-ylmethyl)-N^2-[2-(5-methoxy-1H-indol-3-yl)ethyl]pyrimidine-2,4-diamine]	210 nM
